In PMC8745223, “Novel 1,3,5-Triazinyl Aminobenzenesulfonamides Incorporating Aminoalcohol, Aminochalcone and Aminostilbene Structural Motifs as Potent Anti-VRE Agents, and Carbonic Anhydrases I, II, VII, IX, and XII Inhibitors” (International Journal of Molecular Sciences, 2021):
In brackets after ≈: the same amount, converted by molar mass.

Assays:
hCA II = biological target: T1, hCA II (Homo sapiens, UniProt P00918); assay: stopped-flow CO2 hydration assay; type: biochemical
T1 construct: gene CA2; recombinant
Outline: (§1)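 Ki was derived by non-linear least squares using the Cheng–Prusoff equation. The underlying data were initial rates of CO2 hydration by recombinant human carbonic anhydrase, measured by stopped-flow for 10–100 s with 0.2 mM phenol red (557 nm), 20 mM Hepes pH 7.5, 20 mM Na2SO4 and 1.7–17 mM CO2, after a 15 min room-temperature preincubation of enzyme with inhibitor. Uncatalysed rates were subtracted, at least six traces were used per rate, and values were averaged over three or more determinations.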

hCA I [1] = biological target: T2, hCA I (Homo sapiens, UniProt P00915); assay: stopped-flow CO2 hydration assay; type: biochemical
T2 construct: gene CA1; recombinant
T2 sequence (P00915 2-261): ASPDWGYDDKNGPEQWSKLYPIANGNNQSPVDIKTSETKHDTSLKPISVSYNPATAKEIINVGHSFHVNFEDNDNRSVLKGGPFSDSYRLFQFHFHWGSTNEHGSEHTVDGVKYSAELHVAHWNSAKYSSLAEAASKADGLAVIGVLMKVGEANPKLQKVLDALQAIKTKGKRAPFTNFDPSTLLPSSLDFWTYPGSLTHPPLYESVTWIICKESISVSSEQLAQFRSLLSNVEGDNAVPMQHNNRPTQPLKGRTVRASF
Outline: as §1

hCA VII = biological target: T3, hCA VII (Homo sapiens, UniProt P43166); assay: stopped-flow CO2 hydration assay; type: biochemical
T3 construct: gene CA7; recombinant
T3 sequence (P43166 whole entry): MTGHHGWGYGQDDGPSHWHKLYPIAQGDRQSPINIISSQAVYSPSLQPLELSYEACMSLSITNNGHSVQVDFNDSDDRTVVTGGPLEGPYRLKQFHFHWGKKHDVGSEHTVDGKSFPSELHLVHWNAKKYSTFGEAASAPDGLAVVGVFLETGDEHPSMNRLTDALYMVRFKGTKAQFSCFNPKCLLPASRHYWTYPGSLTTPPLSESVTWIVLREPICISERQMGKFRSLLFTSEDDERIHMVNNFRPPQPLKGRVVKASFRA
Outline: as §1

hCA IX = biological target: T4, hCA IX (Homo sapiens, UniProt Q16790); assay: stopped-flow CO2 hydration assay; type: biochemical
T4 construct: gene CA9; recombinant
Outline: as §1

[2] = tested on: T5, E. faecalis ATCC 29212 (EF); assay: microbe, parasite or virus in culture; set-up: broth microdilution MIC in BHI, Alamar Blue read-out, 37 °C; settings: Enterococcus faecalis, ATCC29212, 24 h
T5 construct: ATCC 29212
Method: (§2) The inhibition activity against enterococci was evaluated by the microtitration broth method according to the Clinical and Laboratory Standards Institute with some modifications. The compounds were dissolved in DMSO and serially diluted in Brain Hearth Infusion (BHI) to reach concentrations 256–2 µg/mL. […] The experiment was repeated at least three times. All the investigated compounds were tested on their anti-staphylococcal activity against three clinical isolates of methicillin-resistant Staphylococcus aureus (MRSA) and S. aureus ATCC 29213 as the reference and quality control strain.

[3] = tested on: T6, Enterococcus faecalis VRE 342 B; assay: organism not typed; set-up: broth microdilution MIC in BHI, Alamar Blue read-out, 37 °C; settings: 24 h
T6 construct: VRE 342 B (vanA clinical isolate)
Method: as §2

[4] = tested on: T7, Enterococcus faecalis VRE 368; assay: organism not typed; set-up: broth microdilution MIC in BHI, Alamar Blue read-out, 37 °C; settings: 24 h
T7 construct: VRE 368 (vanA clinical isolate)
Method: as §2

[5] = tested on: T8, Enterococcus faecalis VRE 725 B; assay: organism not typed; set-up: broth microdilution MIC in BHI, Alamar Blue read-out, 37 °C; settings: 24 h
T8 construct: VRE 725B (vanA clinical isolate)
Method: as §2, with “strain. […] All the compounds were tested against Enterococcus faecalis ATCC 29212 as the reference strain and three isolates from American crows of vanA-carrying vancomycin-resistant E. faecalis (VRE), and the activities, expressed as minimum inhibitory concentrations (MICs), are listed in Table 3.” for “strain.”

[6] = stopped-flow CO2 hydration assay; type: biochemical, Homo sapiens; settings: read-out: KI (nM) ^a / hCA I
Outline: as §1

hCA XII = biological target: T9, hCA XII (Homo sapiens, UniProt O43570); assay: stopped-flow CO2 hydration assay; type: biochemical
T9 construct: gene CA12; recombinant
T9 sequence (O43570 25-354): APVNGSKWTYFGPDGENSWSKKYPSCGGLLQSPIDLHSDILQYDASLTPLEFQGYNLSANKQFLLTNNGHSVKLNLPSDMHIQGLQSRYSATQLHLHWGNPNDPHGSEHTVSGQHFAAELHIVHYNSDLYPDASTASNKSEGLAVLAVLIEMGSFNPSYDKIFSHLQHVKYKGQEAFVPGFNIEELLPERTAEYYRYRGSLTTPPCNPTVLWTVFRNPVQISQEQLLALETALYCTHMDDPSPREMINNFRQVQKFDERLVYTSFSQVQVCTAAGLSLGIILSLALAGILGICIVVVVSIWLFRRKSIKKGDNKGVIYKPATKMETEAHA
Outline: as §1

hCA I [7] = biological target: T2, hCA I; assay: biochemical; set-up: stopped-flow CO2 hydration assay, phenol red indicator 557 nm, recombinant human CA, 15 min preincubation
Method: AnSX.18MV-R Applied Photophysics stopped-flow instrument (Applied Photophysics, Leatherhead, UK) has been used for assaying the CA catalyzed CO2 hydration activity. Phenol red (at a concentration of 0.2 mM) has been used as an indicator, working at the absorbance maximum of 557 nm, with 20 mM Hepes (pH 7.5) as a buffer and 20 mM Na2SO4 (for maintaining constant the ionic strength), following the CA-catalyzed CO2 hydration reaction for a period of 10–100 s. The CO2 concentrations ranged from 1.7 to 17 mM for the determination of the kinetic parameters and inhibition constants. For each inhibitor, at least six traces of the initial 5–10% of the reaction were used for determining the initial velocity. The uncatalyzed rates were determined in the same manner and were subtracted from the total observed rates. Stock solutions of the inhibitor (0.1 mM) were prepared in distilled-deionized water, and dilutions up to 0.005 nM were done thereafter with the assay buffer. Inhibitor and enzyme solutions were preincubated together for 15 min at room temperature prior to assay in order to allow for the formation of the E–I complex. The inhibition constants were obtained by non-linear least-squares methods using PRISM 3 and the ChengPrusoff equation, as reported earlier, and represent the mean from at least three different determinations. All CA isoforms were recombinant ones and were prepared as reported earlier. Errors in the range of 5–10% of the reported value (Mean from three different assays, by stopped-flow technique). The presence of aminobenzenesulfonamide structural moiety in the structure of target compounds 1–44 can cause inhibition activity in these compounds against human carbonic anhydrases. The inhibition of physiologically relevant hCA I and hCA II can lead to various undesirable side effects. […] Compounds 1–44 were evaluated as potential inhibitors of hCA I, hCA II, hCA VII, hCA IX, and hCA XII. The inhibition activities against individual hCAs were determined by methodology based on stopped-flow assay. […]

| Compound | Ki (hCA II) [nM] | Ki (hCA I [1]) [nM] | Ki (hCA VII) [nM] | Ki (hCA IX) [nM] | MIC [2] [µM] | MIC [3] [µM] | MIC [4] [µM] | MIC [5] [µM] | Ki [6] [nM] | Ki (hCA XII) [nM] | Ki (hCA I [7]) [nM] |
| --- | --- | --- | --- | --- | --- | --- | --- | --- | --- | --- | --- |
| NS(=O)(=O)c1ccc(CNc2nc(NCCCO)nc(Nc3ccc(C(=O)/C=C/c4ccccc4)cc3)n2)cc1 [compound 13, 13] | 277 | 1960 | 95.7 | 4630 | 228 (≈ 128 µg/mL) | 228 (≈ 128 µg/mL) | 114 (≈ 63.8 µg/mL) | 228 (≈ 128 µg/mL) | – | – | – |
| NS(=O)(=O)c1ccc(CNc2nc(NCCCO)nc(Nc3ccc(C(=O)/C=C/c4ccccc4O)cc3)n2)cc1 [compound 14, 14] | 35.4 | 5400 | 180 | 623 | 111 (≈ 63.9 µg/mL) | 111 (≈ 63.9 µg/mL) | 111 (≈ 63.9 µg/mL) | > 444 | – | – | – |
| NS(=O)(=O)c1ccc(CNc2nc(NCCCO)nc(Nc3ccc(C(=O)/C=C/c4cccc(O)c4)cc3)n2)cc1 [compound 15, 15] | 3020 | > 10000 | 25.9 | – | 222 (≈ 128 µg/mL) | 222 (≈ 128 µg/mL) | 111 (≈ 63.9 µg/mL) | 111 (≈ 63.9 µg/mL) | > 10000 | – | – |
| NS(=O)(=O)c1ccc(CNc2nc(NCCCO)nc(Nc3ccc(C(=O)/C=C/c4ccc(O)cc4)cc3)n2)cc1 [compound 16, (E)-4-[({4-({4-[3-(4-Hydroxyphenyl)acryloyl]phenyl}amino)-6-[(3-hydroxypropyl)amino]-1,3,5-triazin-2-yl}amino)methyl]benzenesulfonamide] | 36 | 800 | 201 | 161 | > 444 | > 444 | > 444 | > 444 | – | – | – |
| NS(=O)(=O)c1ccc(CCNc2nc(NCCCO)nc(Nc3ccc(C(=O)/C=C/c4ccccc4O)cc3)n2)cc1 [compound 22, 22] | 939 | 7700 | 283 | > 10000 | 108 (≈ 63.7 µg/mL) | 108 (≈ 63.7 µg/mL) | 108 (≈ 63.7 µg/mL) | 108 (≈ 63.7 µg/mL) | – | – | – |
| NS(=O)(=O)c1ccc(CCNc2nc(Nc3ccc(O)cc3)nc(Nc3ccc(C(=O)/C=C/c4ccccc4O)cc3)n2)cc1 [compound 24, 24] | 63.8 | 5010 | 281 | 227 | 51.3 (≈ 32 µg/mL) | 51.3 (≈ 32 µg/mL) | 51.3 (≈ 32 µg/mL) | 102 (≈ 63.6 µg/mL) | – | – | – |
| NS(=O)(=O)c1ccc(CCNc2nc(NCCCO)nc(Nc3ccc(C(=O)/C=C/c4cccc(O)c4)cc3)n2)cc1 [compound 25, (E)-4-[2-({4-({4-[3-(3-Hydroxyphenyl)acryloyl]phenyl}amino)-6-[(3-hydroxypropyl)amino]-1,3,5-triazin-2-yl}amino)ethyl]benzenesulfonamide] | 4130 | 7490 | 186 | > 10000 | 27.1 (≈ 16 µg/mL) | 27.1 (≈ 16 µg/mL) | 27.1 (≈ 16 µg/mL) | 108 (≈ 63.7 µg/mL) | – | – | – |
| NS(=O)(=O)c1ccc(CCNc2nc(Nc3ccc(O)cc3)nc(Nc3ccc(C(=O)/C=C/c4cccc(O)c4)cc3)n2)cc1 [compound 26, (E)-4-[2-({4-({4-[3-(3-Hydroxyphenyl)acryloyl]phenyl}amino)-6-[(4-hydroxyphenyl)amino]-1,3,5-triazin-2-yl}amino)ethyl]benzenesulfonamide] | 1340 | 6630 | 42.1 | > 10000 | 51.3 (≈ 32 µg/mL) | 51.3 (≈ 32 µg/mL) | 25.6 (≈ 16 µg/mL) | 51.3 (≈ 32 µg/mL) | – | – | – |
| NS(=O)(=O)c1ccc(CCNc2nc(NCCCO)nc(Nc3ccc(C(=O)/C=C/c4ccc(O)cc4)cc3)n2)cc1 [compound 27, (E)-4-[2-({4-({4-[3-(4-Hydroxyphenyl)akryloyl]phenyl}amino)-6-[(3-hydroxypropyl)amino]-1,3,5-triazin-2-yl}amino)ethyl]benzenesulfonamide] | 28.8 | 8960 | 459 | > 10000 | > 434 | > 434 | > 434 | 434 (≈ 256 µg/mL) | – | – | – |
| NS(=O)(=O)c1ccc(CCNc2nc(Nc3ccc(O)cc3)nc(Nc3ccc(C(=O)/C=C/c4ccc(O)cc4)cc3)n2)cc1 [compound 29, (E)-4-[2-({4-({4-[3-(4-Hydroxyphenyl)acryloyl]phenyl}amino)-6-[(4-hydroxyphenyl)amino]-1,3,5-triazin-2-yl}amino)ethyl]benzenesulfonamide] | 730 | 5810 | 88.6 | > 10000 | 25.6 (≈ 16 µg/mL) | 25.6 (≈ 16 µg/mL) | 102 (≈ 63.6 µg/mL) | 51.3 (≈ 32 µg/mL) | – | – | – |
| NS(=O)(=O)c1ccc(CCNc2nc(NCCc3ccc(S(N)(=O)=O)cc3)nc(Nc3ccc(/C=C/c4cccc(O)c4)cc3)n2)cc1 [compound 41, (E)-4,4’-{[(6-{[4-(3-Hydroxystyryl)phenyl]amino}-1,3,5-triazin-2,4-diyl)bis(azandiyl)]bis(ethan-2,1-diyl)} benzenesulfonamide] | 41.4 | – | – | 31.1 | 372 (≈ 255 µg/mL) | > 372 | > 372 | > 372 | – | 62.2 | 608 |
| NS(=O)(=O)c1ccc(CCNc2nc(Nc3ccc(O)cc3)nc(Nc3ccc(/C=C/c4ccc(O)cc4)cc3)n2)cc1 [compound 43, 43] | 4840 | – | – | 25.7 | 429 (≈ 256 µg/mL) | > 429 | > 429 | > 429 | – | 702 | 4060 |
| NS(=O)(=O)c1ccc(CCNc2nc(NCc3ccc(S(N)(=O)=O)cc3)nc(Nc3ccc(/C=C/c4ccc(O)cc4)cc3)n2)cc1 [compound 44, (E)-4-{2-[(4-{[4-(4-Hydroxystyryl)phenyl]amino}-6-[(4-sulfamoylbenzyl)amino]-1,3,5-triazin-2-yl)amino]ethyl}benzenesulfonamide] | 252 | – | – | 249 | 380 (≈ 256 µg/mL) | 190 (≈ 128 µg/mL) | > 380 | 380 (≈ 256 µg/mL) | – | 10 | 859 |
